In PMC4011867 (PLoS ONE, 2014):
Where two headings read alike, the source gives them in different places.

Legend:
Set-up in all cases: species or system Acyrthosiphon pisum
[1] = biological target: T1, A. pisum native nAChRs, [125I]-alpha-bungarotoxin binding sites (alpha-Bgt-sensitive); settings: PBS pH 7.2, 0.1% BSA, room temperature, 4 h, low-affinity site, Cheng-Prusoff, table header prints nM, text and IC50 support µM
T1 construct: gene Apisumα1

[2] = biological target: T2, A. pisum native nAChRs, [3H]-imidacloprid binding sites (alpha-Bgt-insensitive); test: [3H]-IMI competition binding, filtration; settings: 25 nM [3H]-IMI, 10 mM Tris-HCl pH 7.4, room temperature, 4 h, low-affinity site; for Ki: Cheng-Prusoff, read-out: [^3H]-IMI / % of high affinity / Ki; for IC50: read-out: [^3H]-IMI / Bmax (fmol/mg) / IC50
T2 construct: gene Apisumα1
From the text: [3H]-IMI competition binding, filtration on A. pisum native nAChRs, [3H]-imidacloprid binding sites (alpha-Bgt-insensitive)

[3] = biological target: T2, A. pisum native nAChRs, [3H]-imidacloprid binding sites (alpha-Bgt-insensitive); test: [3H]-IMI saturation binding, filtration; settings: 10 mM Tris-HCl pH 7.4, room temperature, 4 h; high-affinity site of two-site fit; labelled compound; read-out: [^3H]-IMI / Kd (nM) / assay level
From the text: [3H]-IMI saturation binding, filtration on A. pisum native nAChRs, [3H]-imidacloprid binding sites (alpha-Bgt-insensitive)

[4] = apparent Ki, possibly not strictly competitive
[5] = possibly not strictly competitive

SMILES | Ki ([1]; 0.08 nM [125I]-alpha-Bgt) [nM] | Ki [2, 4] [nM] | IC50 [2, 5] [nM] | Ki ([1]; 0.6 nM [125I]-alpha-Bgt) [nM] | Ki [2] [nM] | IC50 [2] [nM] | Kd [3] [nM]
CN/C(=N\[N+](=O)[O-])NCc1cnc(Cl)s1 [clothianidin] | 180 ± 50 | 127 ± 42.5 | 203 ± 68 |  |  |  | 
CN1COCN(Cc2cnc(Cl)s2)C1=N[N+](=O)[O-] [thiamethoxam] | 1530 ± 650 | 1050 ± 63.1 | 1680 ± 101 |  |  |  | 
O=[N+]([O-])N=C1NCCN1Cc1ccc(Cl)nc1 [imidacloprid] |  |  |  | 14600 ± 1130 | 38.1 ± 6.88 | 61 ± 11 | 0.16 ± 0.04
